Here are results for 88 molecules from the Bradley open melting point set (2014).

Each structure is given as a SMILES string. Where a name gives a salt, the structure may show the parent alone.

Usually melting point stands for the temperature of the solid-liquid transition. As for `Oc1cccc2ccccc12` [1-naphthol], the melting point amounted to 96 °C.

Take `COc1ccc(C(C)=O)cc1OC` [3,4-dimethoxyacetophenone]: the melting point stood at 51 °C.

In the case of `C=C(C)Br` [2-bromopropene], the melting point is -87 °C.

Molecule `CC(C)(Oc1ccc(CCNC(=O)c2ccc(Cl)cc2)cc1)C(=O)O` [Bezafibrate] returned a melting point of 186 °C.

On to `O=C(O)c1ccc(C(F)(F)F)cc1` [4-(trifluoromethyl)benzoic acid], for which the melting point worked out at 221 °C.

Regarding `CC(C(=O)O)c1cccc(C(=O)c2ccccc2)c1` (stereo not drawn) [(+/+)-ketoprofen], the melting point was found to be 93.9 °C.

Molecule `NC(CCC(=O)O)C(=O)O` (stereo in doubt) [D-Glutamic Acid] had a melting point of 201 °C.

`CC(=O)Nc1ccc(O)cc1` [4-acetamidophenol]: the melting point stood at 170 °C.

For the molecule `CCOC(=O)c1ccccc1C(=O)OCC` [diethyl_phthalate], the melting point was -3 °C.

The molecule `CCCCCCCC(C)CC` (stereo not drawn) [3-methyldecane] returned a melting point of -76 °C.

As to `OCc1ccc(Cl)cc1` [(4-Chlorophenyl)methanol], the melting point amounted to 71 °C.

Turning to `COC(=O)C(=O)OC` [dimethyl oxalate], the melting point stood at 52 °C.

`OC1CCOc2ccccc21` (stereo not drawn) [4-chromanol]: the melting point amounted to 40 °C.

Regarding `C[C@@H](O)[C@@H](C)O` [(2R,3R)-Butane-2,3-diol], the melting point worked out at 16 °C.

`O=C(O)c1ccc(-n2nc(-c3ccccc3O)nc2-c2ccccc2O)cc1` [Deferasirox] showed a melting point of 116 °C.

With `CCCC(=O)CC` [3-hexanone], the melting point was -55 °C.

`Cc1cnc(NC(=O)C2=C(O)c3ccccc3S(=O)(=O)N2C)s1` [Meloxicam] displayed a melting point of 254 °C.

For the molecule `CCC1(C(C)C)C(=O)NC(=O)NC1=O` [probarbital], the melting point worked out at 203 °C.

For `O=C(CCC(=O)c1ccccc1)c1ccccc1` [1,2-dibenzoylethane], the melting point came out at 146 °C.

As for `CC12CCC(C1(C)C)C(CCCc1ccccc1)(C1(CCCc3ccccc3)C(=O)C3(C)CCC1C3(C)C)C2=O` (stereo not drawn), the melting point was 162 °C.

`CC(C)CC(=O)O` [isovaleric acid] came in with a melting point of -29.3 °C.

`CNCC(O)c1ccccc1` (stereo not drawn) [2-(Methylamino)-1-phenylethanol] gave a melting point of 75 °C.

`O=C(C1CCCCC1)N1CC(=O)N2CCc3ccccc3C2C1` (stereo not drawn) [Praziquantel] showed a melting point of 136 °C.

`CN[C@@H](C)[C@H](O)c1ccccc1` [(1R,2S)-2-(Methylamino)-1-phenylpropan-1-ol] came in with a melting point of 36 °C.

Take `CCCCCl` [1-Chlorobutane]: the melting point was -123 °C.

`C[C@@H]1C[C@H]1C` (relative stereo) [trans-1,2-dimethylcyclopropane]: the melting point was -150 °C.

As to `CC12CCC(/C(=C\Nc3ccccc3C(=O)O)C1=O)C2(C)C` (stereo not drawn), the melting point was 112 °C.

Molecule `C#CC1(O)CCC2C3CC=C4C=C(C(C)(C)C(=O)O)CCC4(C)C3CCC21C` (stereo not drawn) yielded a melting point of 259 °C.

As to `CC(=O)CC(=O)OC(C)C` [isopropyl acetoacetate], the melting point was -27 °C.

For the molecule `CC(=O)OCCC(C)C` [isopentyl acetate], the melting point is -78 °C.

`OC[C@H]1O[C@@H](O)[C@H](O)[C@H](O)[C@@H]1O` [beta-D-allose] registered a melting point of 145 °C.

Molecule `O=C=N/C1CCCCC1` [Isocyanatocyclohexane] had a melting point of -80 °C.

Turning to `Nc1ccc(C2CCCCC2)cc1` [4-cyclohexylaniline], the melting point came to 54 °C.

Molecule `C/C=C/c1ccccc1` [trans-1-phenyl-1-propene] came in with a melting point of -29 °C.

In the case of `CCCCCCc1ccc(O)cc1O` [4-n-hexylresorcinol], the melting point was found to be 66 °C.

`C1CCC(NC2CCCCC2)CC1` [dicyclohexylamine] came in with a melting point of -2 °C.

For the molecule `CCOC(=O)c1cc(C)[nH]n1` [Ethyl 5-methyl-1H-pyrazole-3-carboxylate], the melting point was determined as 87 °C.

For the molecule `Oc1ccccc1Br` [2-bromophenol], the melting point was found to be 5.6 °C.

Consider `c1ccc2c(c1)CCC2` [indane], for which the melting point is -51 °C.

As for `C/C(OC/C(=N/NC(N)=O)c1ccccc1)=C(\C#N)c1ccccc1`, the melting point was 157 °C.

For the molecule `O=Cc1ccc(C=O)cc1` [terephthalaldehyde], the melting point was found to be 116 °C.

`CC[C@H]1OC(=O)[C@H](C)[C@@H](O[C@H]2C[C@@](C)(OC)[C@@H](O)[C@H](C)O2)C(C)[C@@H](O[C@@H]2O[C@H](C)C[C@H](N(C)C)[C@H]2O)[C@](C)(O)C[C@@H](C)CN(C)[C@H](C)[C@@H](O)[C@]1(C)O` (stereo partly drawn) [Azithromycin] showed a melting point of 114 °C.

For `O=S(=O)(O)F` [Sulfurofluoridic acid], the melting point was -87.3 °C.

`O[C@@H]1CCC[C@@H]1O` [(1R,2S)-Cyclopentane-1,2-diol] returned a melting point of 32.5 °C.

`CCC(C)C1(CC)C(=O)NC(=O)NC1=O` (stereo not drawn) [butabarbital] had a melting point of 166 °C.

Consider `CC1(C)C(=O)[C@@]2(C)CC[C@@H]1C2` [fenchone], for which the melting point amounted to 6 °C.

Turning to `Cc1ccc(S(=O)(=O)O)cc1` [p-toluenesulfonic acid], the melting point was 104 °C.

Take `Cc1cc(Br)ccc1N` [4-bromo-2-methylaniline]: the melting point worked out at 52 °C.

In turn, `OCc1c2ccccc2cc2ccccc12` [9-anthracenemethanol] had a melting point of 163 °C.

In turn, `Cc1ccc(CO)cc1` [4-methylbenzyl_alcohol] gave a melting point of 61 °C.

The molecule `Cc1ccc(C(=O)c2ccccc2C(=O)O)cc1` [2-(4-toluoyl)benzoic acid] displayed a melting point of 138 °C.

Molecule `COc1cccc(OC)c1CN` [2,6-dimethoxybenzylamine] returned a melting point of 85 °C.

`CC(=O)OCC1OC(OCc2ccccc2)C(OC(C)=O)C(OC(C)=O)C1OC(C)=O` (stereo not drawn) displayed a melting point of 98 °C.

In turn, `CCCCCCn1c(=O)c2c(ncn2C)n(C)c1=O` [1-n-hexyltheobromine] displayed a melting point of 81 °C.

Molecule `COc1ccc(Cc2cnc(N)nc2N)cc1OC` [diaveridine] displayed a melting point of 233 °C.

`CC(C)c1cccc(C(C)C)c1` [1,3-diisopropylbenzene] displayed a melting point of -63 °C.

Consider `Cc1ccc(N)cc1O` [5-Amino-o-cresol], for which the melting point is 161 °C.

For `O=[N+]([O-])c1ccc(-c2ccc([N+](=O)[O-])cc2Cl)cc1` [2-chloro-4,4'-dinitrobiphenyl], the melting point turned out to be 145 °C.

In turn, `C[C@]12CCC(=O)C=C1CC[C@@H]1[C@@H]2[C@@H](O)C[C@@]2(C)[C@H]1CC[C@]2(O)C(=O)CO` [(11beta)-11,17,21-Trihydroxypregn-4-ene-3,20-dione] returned a melting point of 220 °C.

For the molecule `Cc1cc(Br)cn(C)c1=O` [5-bromo-1,3-dimethyl-2-pyridone], the melting point is 106 °C.

With `OC/C(Br)=C(\Br)CO` [(2E)-2,3-Dibromobut-2-ene-1,4-diol], the melting point amounted to 113 °C.

`COC(=O)n1c(C)c(C)c2ccccc21` [methyl 2,3-dimethyl-1H-indole-1-carboxylate] returned a melting point of 50 °C.

In turn, `CCCCCCP(=O)(O)O` [N-hexylphosphonic acid] had a melting point of 109 °C.

Molecule `C=CCOc1nc(OCC=C)nc(OCC=C)n1` [2,4,6-tris(allyloxy)-1,3,5-triazine] came in with a melting point of 27 °C.

For `CCn1cc(C(=O)O)c(=O)c2cc(F)c(N3CCNCC3)cc21` [norfloxacin], the melting point turned out to be 220 °C.

With `C=C[Si]1(C)O[Si](C)(C=C)O[Si](C)(C=C)O[Si](C)(C=C)O1` (stereo not drawn) [2,4,6,8-tetramethyl-2,4,6,8-tetravinylcyclotetrasiloxane], the melting point is -43 °C.

Turning to `OCCNCCO` [diethanolamine], the melting point is 29 °C.

With `N#CCCCCCCCCCCC#N` [1,10-decanedicarbonitrile], the melting point is 18 °C.

`CCC(CC)C(=O)O` [2-ethylbutyric acid] yielded a melting point of -15 °C.

For the molecule `CCc1c(C)cccc1C` [1,3-dimethyl-2-ethylbenzene], the melting point is -16 °C.

The molecule `Nc1ccc(/N=C/c2cccc([N+](=O)[O-])c2)cc1` [4-[(E)-(3-Nitrobenzylidene)amino]aniline] had a melting point of 148 °C.

`CC(C)C(N)=O` [isobutyramide]: the melting point was 129 °C.

In turn, `O=C(O)/C=C/c1ccc(Cl)cc1Cl` [trans-2,4-dichlorocinnamic acid] came in with a melting point of 234 °C.

Take `COc1ccc(OC)c(C(O)CNC(=O)CN)c1` (stereo not drawn) [Midodrine]: the melting point was found to be 202 °C.

As to `CCCC(C)(CO)CO` [2-methyl-2-propyl-1,3-propanediol], the melting point is 55 °C.

With `[O-][I+2]([O-])O` [Iodic acid], the melting point amounted to 110 °C.

Regarding `Cc1cccc(Cl)c1N` [2-chloro-6-methylaniline], the melting point came out at 2 °C.

`COCC(=O)N(c1c(C)cccc1C)C(C)C(=O)OC` (stereo not drawn) [Metalaxyl] returned a melting point of 72 °C.

`COc1ccc2c3c1O[C@H]1[C@@H](O)C=C[C@H]4[C@@H](C2)N(C)CC[C@@]341` [codeine]: the melting point amounted to 158 °C.

Molecule `Cc1ccc(N=Nc2c(O)ccc3ccccc23)c([N+](=O)[O-])c1` [1-[(4-Methyl-2-nitrophenyl)diazenyl]-2-naphthol] displayed a melting point of 271 °C.

On to `c1ccc(-c2ccccc2-c2ccccc2)cc1` [o-terphenyl], for which the melting point came out at 57 °C.

Regarding `O=[N+]([O-])c1ccc(Cl)c(Cl)c1` [1,2-dichloro-4-nitrobenzene], the melting point was 41 °C.

Molecule `C[C@@H](O)[C@@H](C)O` [R,R-2,3-butanediol] gave a melting point of 16 °C.

For the molecule `ClCC(CCl)(CCl)CCl` [pentaerythrityl tetrachloride], the melting point is 95 °C.

Molecule `COC1=CC(=O)CC(C)C12Oc1c(Cl)c(OC)cc(OC)c1C2=O` (stereo not drawn) yielded a melting point of 219 °C.

Consider `O=Cc1ccc([N+](=O)[O-])o1` [5-nitro-2-furaldehyde], for which the melting point worked out at 36 °C.

On to `O=S(=O)(Cl)c1ccccc1` [benzenesulfonyl chloride], for which the melting point was determined as 15 °C.

Turning to `O=C(OC1OC(=O)c2ccccc21)c1ccccc1` (stereo not drawn) [3-oxo-1,3-dihydro-2-benzofuran-1-yl benzoate], the melting point came to 128 °C.
